In patent US20230278996A1, “YKL-40 INHIBITORS AND THEIR THERAPEUTIC APPLICATIONS” (Molecure S.A., priority 2022, published 2023) one finds IC50 data, which are given here for 12 molecules.

Each structure is given as a SMILES string. pIC50: −log10 of the molar value.

The target in the assay is YKL-40 (Homo sapiens (Human), UniProt P36222). Briefly: YKL-40:4 assay, competitive chitin binding site AlphaScreen. As to conditions: competition with biotinylated compound 4 (20 nM), YKL-40-histag 2.5 nM.
Sequence of YKL-40 (P36222 22-383): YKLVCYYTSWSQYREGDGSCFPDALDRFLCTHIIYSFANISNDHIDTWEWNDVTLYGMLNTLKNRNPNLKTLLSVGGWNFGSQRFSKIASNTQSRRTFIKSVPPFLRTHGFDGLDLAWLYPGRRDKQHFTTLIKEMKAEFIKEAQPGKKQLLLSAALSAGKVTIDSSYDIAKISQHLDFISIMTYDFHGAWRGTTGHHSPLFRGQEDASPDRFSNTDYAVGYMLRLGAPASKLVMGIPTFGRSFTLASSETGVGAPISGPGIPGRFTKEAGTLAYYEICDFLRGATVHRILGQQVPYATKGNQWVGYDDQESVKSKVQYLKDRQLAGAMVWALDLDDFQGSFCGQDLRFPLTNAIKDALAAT
For the molecule `CN1C[C@H](Cc2ccc(Cl)cc2)N(C2CCN(c3cc(Cl)ccn3)CC2)C[C@@H]1COc1ccc2ccccc2c1` [compound 84, (2S,5R)-2-(4-chlorobenzyl)-1-(1-(4-chloropyridin-2-yl)piperidin-4-yl)-4-methyl-5-((naphthalen-2-yloxy)methyl)piperazine 2,2,2-trifluoroacetate], the pIC50 is less than 4.00.

Molecule `C[C@H]1CN(C2CCN(c3ccccn3)C(=O)C2)[C@@H](Cc2ccc(Cl)cc2)CO1` (stereo partly drawn) [compound 85, 4-((2S,5S)-5-(4-chlorobenzyl)-2-methylmorpholino)-1-(pyridin-2-yl)piperidin-2-one 2,2,2-trifluoroacetate] had a pIC50 of 4.00 to 5.00.

Molecule `Clc1ccc(C[C@H]2COCCN2C2CCN(c3ccccn3)CC2)cc1` [compound 88, (S)-3-(4-chlorobenzyl)-4-(1-(pyridin-2-yl)piperidin-4-yl)morpholine 2,2,2-trifluoroacetate] showed a pIC50 of 6.00 to 7.00.

`COC1(C)CCN(C2CCN(c3ccccn3)CC2)[C@@H](Cc2ccc(Cl)cc2)C1` (stereo partly drawn) [compound 91, (2S)-2-(4-chlorobenzyl)-4-methoxy-4-methyl-1′-(pyridin-2-yl)-1,4′-bipiperidine 2,2,2-trifluoroacetate] showed a pIC50 greater than 7.00.

On to `CC1(O)CCN(C2CCN(c3ccccn3)CC2)[C@@H](Cc2ccc(Cl)cc2)C1` (stereo partly drawn) [compound 92, (2S)-2-(4-chlorobenzyl)-4-methyl-1′-(pyridin-2-yl)-[1,4′-bipiperidin]-4-ol 2,2,2-trifluoroacetate], for which the pIC50 was greater than 7.00.

The molecule `CC[C@H]1CN(C2CCN(c3ccccn3)CC2)[C@@H](Cc2ccc(Cl)cc2)CN1C` [compound 93, (2S,5S)-2-(4-chlorobenzyl)-5-ethyl-4-methyl-1-(1-(pyridin-2-yl)piperidin-4-yl)piperazine 2,2,2-trifluoroacetate] showed a pIC50 of 4.00 to 5.00.

The molecule `CC[C@H]1CN(C2CCN(c3ccccn3)CC2)[C@@H](Cc2ccc(Cl)cc2)CN1CC(C)C` [compound 94, (2S,5S)-2-(4-chlorobenzyl)-5-ethyl-4-isobutyl-1-(1-(pyridin-2-yl)piperidin-4-yl)piperazine 2,2,2-trifluoroacetate] gave a pIC50 of 5.00 to 6.00.

Molecule `COC(C)(C)CN1C[C@H](Cc2ccc(Cl)cc2)N(C2CCN(c3ccccn3)CC2)C[C@@H]1CC(C)C` [compound 100, (2S,5S)-2-(4-chlorobenzyl)-5-isobutyl-4-(2-methoxy-2-methylpropyl)-1-(1-(pyridin-2-yl)piperidin-4-yl)piperazine 2,2,2-trifluoroacetate] gave a pIC50 of 5.00 to 6.00.

On to `C[C@H]1CN(C2CCN(c3ccccn3)CC2)[C@@H](Cc2ccc(Cl)cc2)CN1CC(=O)N(C)C` [compound 101, 2-((2S,5S)-5-(4-chlorobenzyl)-2-methyl-4-(1-(pyridin-2-yl)piperidin-4-yl)piperazin-1-yl)-N,N-dimethylacetamide], for which the pIC50 was 6.00 to 7.00.

The molecule `C[C@@H](O)CN1C[C@H](Cc2ccc(Cl)cc2)N(C2CCN(c3ccccn3)CC2)C[C@@H]1C` [compound 102, (R)-1-((2S,5S)-5-(4-chlorobenzyl)-2-methyl-4-(1-(pyridin-2-yl)piperidin-4-yl)piperazin-1-yl)propan-2-ol 2,2,2-trifluoroacetate] showed a pIC50 of 6.00 to 7.00.

On to `C[C@H]1CN(C2CCN(c3ccccn3)CC2)[C@@H](Cc2ccc(Cl)cc2)CN1CC(=O)NC1CC1` [compound 103, 2-((2S,5S)-5-(4-chlorobenzyl)-2-methyl-4-(1-(pyridin-2-yl)piperidin-4-yl)piperazin-1-yl)-N-cyclopropylacetamide 2,2,2-trifluoroacetate], for which the pIC50 is 6.00 to 7.00.

In turn, `C[C@H](O)CN1C[C@H](Cc2ccc(Cl)cc2)N(C2CCN(c3ccccn3)CC2)C[C@@H]1C` [compound 104, (S)-1-((2S,5S)-5-(4-chlorobenzyl)-2-methyl-4-(1-(pyridin-2-yl)piperidin-4-yl)piperazin-1-yl)propan-2-ol 2,2,2-trifluoroacetate] showed a pIC50 greater than 7.00.
